Test results: ChEMBL document CHEMBL2331514, “Structure-based design and synthesis of novel pseudosaccharine derivatives as antiproliferative agents and kinase inhibitors” (Eur J Med Chem, 2013)

Key:
Assay type in all cases: functional
SK-MEL-2 = assay: Cytotoxicity against human SK-MEL-2 cells assessed as growth inhibition at 10 uM after 48 hrs by SRB assay; settings: SK-MEL-2, 48 h, read-out: GI
SF-295 = assay: Cytotoxicity against human SF295 cells assessed as growth inhibition at 10 uM after 48 hrs by SRB assay; settings: SF-295, 48 h, read-out: GI
MOLT-4 = assay: Cytotoxicity against human MOLT4 cells assessed as growth inhibition at 10 uM after 48 hrs by SRB assay; settings: MOLT-4, 48 h, read-out: GI
MDA-MB-231 = assay: Cytotoxicity against human MDA-MB-231 cells assessed as growth inhibition at 10 uM after 48 hrs by SRB assay; settings: MDA-MB-231, 48 h, read-out: GI
SR = assay: Cytotoxicity against human SR cells assessed as growth inhibition at 10 uM after 48 hrs by SRB assay; settings: read-out: GI
SK-MEL-28 = assay: Cytotoxicity against human SK-MEL-28 cells assessed as growth inhibition at 10 uM after 48 hrs by SRB assay; settings: SK-MEL-28, 48 h, read-out: GI
HOP-92 = assay: Cytotoxicity against human HOP92 cells assessed as growth inhibition at 10 uM after 48 hrs by SRB assay; settings: HOP-92, 48 h, read-out: GI
LOX IMVI = assay: Cytotoxicity against human LOXIMVI cells assessed as growth inhibition at 10 uM after 48 hrs by SRB assay; settings: read-out: GI
DU-145 = assay: Cytotoxicity against human DU145 cells assessed as growth inhibition at 10 uM after 48 hrs by SRB assay; settings: DU-145, 48 h, read-out: GI
UACC-62 = assay: Cytotoxicity against human UACC62 cells assessed as growth inhibition at 10 uM after 48 hrs by SRB assay; settings: UACC-62, 48 h, read-out: GI
CCRF-CEM = assay: Cytotoxicity against human CCRF-CEM cells assessed as growth inhibition at 10 uM after 48 hrs by SRB assay; settings: read-out: GI
HT-29 = assay: Cytotoxicity against human HT-29 cells assessed as growth inhibition at 10 uM after 48 hrs by SRB assay; settings: HT-29, 48 h, read-out: GI
BT-549 = assay: Cytotoxicity against human BT549 cells assessed as growth inhibition at 10 uM after 48 hrs by SRB assay; settings: BT-549, 48 h, read-out: GI
U-251 = assay: Cytotoxicity against human U251 cells assessed as growth inhibition at 10 uM after 48 hrs by SRB assay; settings: U-251, 48 h, read-out: GI
KM12 = assay: Cytotoxicity against human KM12 cells assessed as growth inhibition at 10 uM after 48 hrs by SRB assay; settings: KM12, 48 h, read-out: GI
A549 = assay: Cytotoxicity against human A549/ATCC cells assessed as growth inhibition at 10 uM after 48 hrs by SRB assay; settings: A549, 48 h, read-out: GI
OVCAR-3 = assay: Cytotoxicity against human OVCAR3 cells assessed as growth inhibition at 10 uM after 48 hrs by SRB assay; settings: OVCAR-3, 48 h, read-out: GI
MCF7 = assay: Cytotoxicity against human MCF7 cells assessed as growth inhibition at 10 uM after 48 hrs by SRB assay; settings: MCF7, 48 h, read-out: GI
SK-MEL-5 = assay: Cytotoxicity against human SK-MEL-5 cells assessed as growth inhibition at 10 uM after 48 hrs by SRB assay; settings: SK-MEL-5, 48 h, read-out: GI
MDA-MB-468 = assay: Cytotoxicity against human MDA-MB-468 cells assessed as growth inhibition at 10 uM after 48 hrs by SRB assay; settings: MDA-MB-468, 48 h, read-out: GI
M14 = assay: Cytotoxicity against human M14 cells assessed as growth inhibition at 10 uM after 48 hrs by SRB assay; settings: M14, 48 h, read-out: GI
NCI-H226 = assay: Cytotoxicity against human NCI-H226 cells assessed as growth inhibition at 10 uM after 48 hrs by SRB assay; settings: NCI-H226, 48 h, read-out: GI
[1] = Cytotoxicity against human NCI-ADR-RES cells assessed as growth inhibition at 10 uM after 48 hrs by SRB assay; settings: read-out: GI
HL-60(TB) = assay: Cytotoxicity against human HL-60(TB) cells assessed as growth inhibition at 10 uM after 48 hrs by SRB assay; settings: HL-60, 48 h, read-out: GI
SN12C = assay: Cytotoxicity against human SN12C cells assessed as growth inhibition at 10 uM after 48 hrs by SRB assay; settings: read-out: GI
SNB-75 = assay: Cytotoxicity against human SNB75 cells assessed as growth inhibition at 10 uM after 48 hrs by SRB assay; settings: SNB-75, 48 h, read-out: GI
NCI-H522 = assay: Cytotoxicity against human NCI-H522 cells assessed as growth inhibition at 10 uM after 48 hrs by SRB assay; settings: NCI-H522, 48 h, read-out: GI
OVCAR-5 = assay: Cytotoxicity against human OVCAR5 cells assessed as growth inhibition at 10 uM after 48 hrs by SRB assay; settings: OVCAR-5, 48 h, read-out: GI
RPMI-8226 = assay: Cytotoxicity against human RPMI8226 cells assessed as growth inhibition at 10 uM after 48 hrs by SRB assay; settings: RPMI-8226, 48 h, read-out: GI
TK-10 = assay: Cytotoxicity against human TK10 cells assessed as growth inhibition at 10 uM after 48 hrs by SRB assay; settings: TK-10, 48 h, read-out: GI
CAKI-1 = assay: Cytotoxicity against human Caki1 cells assessed as growth inhibition at 10 uM after 48 hrs by SRB assay; settings: CAKI-1, 48 h, read-out: GI
MDA-MB-435 = assay: Cytotoxicity against human MDA-MB-435 cells assessed as growth inhibition at 10 uM after 48 hrs by SRB assay; settings: MDA-MB-435, 48 h, read-out: GI
NCI-H460 = assay: Cytotoxicity against human NCI-H460 cells assessed as growth inhibition at 10 uM after 48 hrs by SRB assay; settings: NCI-H460, 48 h, read-out: GI
PC-3 = assay: Cytotoxicity against human PC3 cells assessed as growth inhibition at 10 uM after 48 hrs by SRB assay; settings: PC-3, 48 h, read-out: GI
T47D = assay: Cytotoxicity against human T47D cells assessed as growth inhibition at 10 uM after 48 hrs by SRB assay; settings: read-out: GI
ACHN = assay: Cytotoxicity against human ACHN cells assessed as growth inhibition at 10 uM after 48 hrs by SRB assay; settings: read-out: GI
IGROV-1 = assay: Cytotoxicity against human IGROV1 cells assessed as growth inhibition at 10 uM after 48 hrs by SRB assay; settings: IGROV-1, 48 h, read-out: GI

SMILES | inhibition of growth at 10 µM (SK-MEL-2) | inhibition of growth at 10 µM (SF-295) | inhibition of growth at 10 µM (MOLT-4) | inhibition of growth at 10 µM (MDA-MB-231) | inhibition of growth at 10 µM (SR) | inhibition of growth at 10 µM (SK-MEL-28) | inhibition of growth at 10 µM (HOP-92) | inhibition of growth at 10 µM (LOX IMVI) | inhibition of growth at 10 µM (DU-145) | inhibition of growth at 10 µM (UACC-62) | inhibition of growth at 10 µM (CCRF-CEM) | inhibition of growth at 10 µM (HT-29) | inhibition of growth at 10 µM (BT-549) | inhibition of growth at 10 µM (U-251) | inhibition of growth at 10 µM (KM12) | inhibition of growth at 10 µM (A549) | inhibition of growth at 10 µM (OVCAR-3) | inhibition of growth at 10 µM (MCF7) | inhibition of growth at 10 µM (SK-MEL-5) | inhibition of growth at 10 µM (MDA-MB-468) | also measured
O=C(Nc1ccccc1)Nc1ccc(OC2=NS(=O)(=O)c3ccccc32)cc1 | -2% | 32% | 32% | 63% | 36% | -2% | 2% | 49% | 18% | 21% | 41% | 52% | 12% | 21% | 58% | 22% | -9% | 17% | 17% | 20% | inhibition of growth at 10 µM (M14): 42%; inhibition of growth at 10 µM (NCI-H226): 20%; inhibition of growth at 10 µM [1]: 21%; inhibition of growth at 10 µM (HL-60(TB)): 23%; inhibition of growth at 10 µM (SN12C): 18%; inhibition of growth at 10 µM (SNB-75): 22%; inhibition of growth at 10 µM (NCI-H522): 21%; inhibition of growth at 10 µM (OVCAR-5): 13%; inhibition of growth at 10 µM (RPMI-8226): 36%; inhibition of growth at 10 µM (TK-10): -7%; inhibition of growth at 10 µM (CAKI-1): 25%; inhibition of growth at 10 µM (MDA-MB-435): 15%; inhibition of growth at 10 µM (NCI-H460): 21%; inhibition of growth at 10 µM (PC-3): 11%; inhibition of growth at 10 µM (T47D): 23%; inhibition of growth at 10 µM (ACHN): 12%; inhibition of growth at 10 µM (IGROV-1): -12%
O=C(Nc1ccc(Cl)cc1)Nc1ccc2c(c1)C(Nc1ccc(Cl)cc1Cl)=NS2(=O)=O | 50% | 96% | 73% | 43% | 60% | 42% | 82% | 72% | 71% | 71% | 82% | 57% | 49% | 73% | 80% | 69% | 98% | 79% | 51% | 74% | inhibition of growth at 10 µM (M14): 63%; inhibition of growth at 10 µM (NCI-H226): 63%; inhibition of growth at 10 µM [1]: 79%; inhibition of growth at 10 µM (HL-60(TB)): 74%; inhibition of growth at 10 µM (SN12C): 67%; inhibition of growth at 10 µM (SNB-75): 30%; inhibition of growth at 10 µM (NCI-H522): 77%; inhibition of growth at 10 µM (OVCAR-5): 40%; inhibition of growth at 10 µM (RPMI-8226): 98%; inhibition of growth at 10 µM (TK-10): 57%; inhibition of growth at 10 µM (CAKI-1): 83%; inhibition of growth at 10 µM (MDA-MB-435): 65%; inhibition of growth at 10 µM (NCI-H460): 87%; inhibition of growth at 10 µM (PC-3): 82%; inhibition of growth at 10 µM (T47D): 87%; inhibition of growth at 10 µM (ACHN): 85%; inhibition of growth at 10 µM (IGROV-1): 54%
O=C(Nc1ccc(NC2=NS(=O)(=O)c3ccccc32)cc1)Nc1cccc(Br)c1 | 1% | 20% | 37% | 47% | 27% | 5% | 36% | 23% | 19% | 19% | 39% | 11% | 23% | 39% | 88% | 4% | 22% | 44% | 45% | 60% | inhibition of growth at 10 µM (M14): 22%; inhibition of growth at 10 µM (NCI-H226): 20%; inhibition of growth at 10 µM [1]: 8%; inhibition of growth at 10 µM (HL-60(TB)): 1%; inhibition of growth at 10 µM (SN12C): 21%; inhibition of growth at 10 µM (SNB-75): 15%; inhibition of growth at 10 µM (NCI-H522): 14%; inhibition of growth at 10 µM (OVCAR-5): 13%; inhibition of growth at 10 µM (RPMI-8226): 8%; inhibition of growth at 10 µM (TK-10): -2%; inhibition of growth at 10 µM (CAKI-1): 5%; inhibition of growth at 10 µM (MDA-MB-435): 11%; inhibition of growth at 10 µM (NCI-H460): 1%; inhibition of growth at 10 µM (PC-3): 16%; inhibition of growth at 10 µM (T47D): 60%; inhibition of growth at 10 µM (ACHN): 3%; inhibition of growth at 10 µM (IGROV-1): -10%
